Laboratory results: patent US10213438B2, “Alkaloid compounds for treating depression, substance addictions, and indications associated with chronic inflammation” (MyMD Pharmaceuticals, Inc., priority 2014, dated 2019)

Tests used:
[1] = target: T1, MAO-A (Homo sapiens, UniProt P21397); test: MAO-Glo luminescent assay, MAO-A; format: biochemical; details: 1 hour at room temperature, FIG. 5
T1 sequence (P21397 1-527): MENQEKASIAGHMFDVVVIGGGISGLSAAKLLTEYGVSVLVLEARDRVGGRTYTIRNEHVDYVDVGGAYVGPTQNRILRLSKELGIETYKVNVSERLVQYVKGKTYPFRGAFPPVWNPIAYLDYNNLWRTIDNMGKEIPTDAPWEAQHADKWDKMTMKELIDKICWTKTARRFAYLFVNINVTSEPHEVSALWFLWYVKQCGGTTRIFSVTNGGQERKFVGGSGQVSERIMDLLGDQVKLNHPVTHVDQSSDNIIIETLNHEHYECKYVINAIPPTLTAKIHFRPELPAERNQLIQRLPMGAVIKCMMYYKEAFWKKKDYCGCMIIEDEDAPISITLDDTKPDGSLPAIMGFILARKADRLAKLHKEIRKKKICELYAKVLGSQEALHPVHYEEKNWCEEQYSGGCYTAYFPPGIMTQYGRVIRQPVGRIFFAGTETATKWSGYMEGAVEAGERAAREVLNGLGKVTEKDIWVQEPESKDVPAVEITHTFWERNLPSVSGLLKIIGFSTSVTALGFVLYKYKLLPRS
From the text: This example describes experiments for determining monoamine oxidase (MAO) inhibition for 2-(pyridin-3-yl)-2,3,4,7-tetrahydro-1H-azepine and other alkaloids. MAOs are enzymes located on the outer membrane of mitochondria and are involved in the catabolism of monoamine neurotransmitters. There are two well-characterized isoenzymes: MAO-A, which predominantly catabolizes serotonin and norepinephrine, and MAO-B, which preferentially catabolizes benzylamine and phenylethylamine. Dopamine and tyramine are metabolized by both isoforms.
To detect the activity of MAO, a luminescent method (MAO-Glo Assay kit, from Promega, Cat # V1401) was used. In this method, a MAO substrate (a derivative of beetle luciferin provided in the kit) is mixed with the compound to be tested (in this case, myosmine and control compounds). Then, the MAO enzymes (either A or B, purchased separately) are added to the mixture and incubated with the reaction for 1 hour at room temperature. The MAO enzymes, if not inhibited by the test compound, will convert the substrate into methyl ester luciferin. Finally, a luciferin detection reagent (provided by the kit) is added (20 minutes at room temperature) to stop the MAO reaction and convert methyl ester luciferin into D-luciferin. […] The luminescent signal is measured and recorded using a luminometer. […]

[2] = test system: COX-2; test: LPS-stimulated RAW cells, protein blot for COX-2 expression; format: cell-based, mouse; details: LPS stimulation, compound added after 15 minutes, harvest 24 hours later, FIG. 2
Experimental: (§1) This example illustrates in vitro studies of 2-(pyridin-3-yl)-2,3,4,7-tetrahydro-1H-azepine. For these experiments, the mouse macrophage cell line RAW 264.7 was used (referred to herein as RAW). The design of the experiments is the following:
(§2) RAW cells were plated in complete medium overnight. The following day, a known inflammatory stimulus (bacterial LPS) was added to the culture wells. Following a 15 minute stimulation, 2-(pyridin-3-yl)-2,3,4,7-tetrahydro-1H-azepine (7-MR) was added to the culture at different concentrations. Twenty-four hours later, RAW cells were harvested and their proteins extracted. Proteins were then run on a polyacrylamide gels and transferred to a nitrocellulose membrane. The membrane was finally probed with commercial antibodies against some classic inflammatory markers.
(§3) The following three inflammatory markers were tested:
COX-2 (antibody made by Cayman Chemical, catalog number 160106)

[3] = test system: RAW macrophage cells; test: assay of cell viability in RAW macrophage cells; format: cell-based, mouse; details: RAW 264.7 cells, FIG. 1
Experimental: as §1
Before testing the anti-inflammatory effect(s) of 2-(pyridin-3-yl)-2,3,4,7-tetrahydro-1H-azepine, an assay of cell viability was performed. […] Toxicity was only seen at higher doses (3 mM and above).

[4] = test system: iNOS; test: LPS-stimulated RAW cells, protein blot for iNOS expression; format: cell-based, mouse
Experimental: as §1, §2, §3
iNOS (SantaCruz Biotechnology, sc-650)

[5] = test system: mice; details: cited from earlier work; for effect on dopamine levels: MPTP
[6] = target: T2, MAO-B (Homo sapiens, UniProt P27338); details: cited from earlier work
T2 sequence (P27338 1-520): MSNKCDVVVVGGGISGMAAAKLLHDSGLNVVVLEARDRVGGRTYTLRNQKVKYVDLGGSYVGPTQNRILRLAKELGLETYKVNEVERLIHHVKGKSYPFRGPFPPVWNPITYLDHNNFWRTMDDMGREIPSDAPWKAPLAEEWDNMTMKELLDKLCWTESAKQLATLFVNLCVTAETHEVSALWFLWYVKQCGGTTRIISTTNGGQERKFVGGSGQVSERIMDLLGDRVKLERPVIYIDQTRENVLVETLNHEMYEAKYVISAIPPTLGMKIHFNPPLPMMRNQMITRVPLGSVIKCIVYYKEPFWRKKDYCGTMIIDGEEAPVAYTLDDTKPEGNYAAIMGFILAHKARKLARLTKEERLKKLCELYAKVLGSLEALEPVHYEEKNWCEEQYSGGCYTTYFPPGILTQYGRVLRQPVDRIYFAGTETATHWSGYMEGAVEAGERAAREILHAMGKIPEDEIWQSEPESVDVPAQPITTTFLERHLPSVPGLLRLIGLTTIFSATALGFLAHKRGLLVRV

[7] = target: T1, MAO-A; details: cited from earlier work

Structure (SMILES): C1=CCNC(c2cccnc2)CC1 (stereo not shown) [2-(pyridin-3-yl)-2,3,4,7-tetrahydro-1H-azepine]
- inhibition of MAO-A (activity curve) [1]: found to inhibit MAO-A
- expression of COX2 [2]: slightly
- concentration not toxic to RAW macrophage cells (cell viability) [3]: up to 2 mM
- concentration at which toxicity was seen (cell viability) ([3]; higher doses): ≥ 3000 µM
- expression of iNOS ([4]; LPS stimulation, compound added after 15 minutes, harvest 24 hours later, FIGS. 2 and 3): decreased significantly
- suppression of iNOS expression, separate experiments ([4]; confirmation in separate experiments, FIG. 4): specifically suppressed iNOS

Structure (SMILES): c1ccc(-c2ccncc2)cc1 [4-phenylpyridine]
- effect on dopamine levels [5]: no significant effect
- decrease in dopamine metabolite levels induced by MPTP [5]: prevented the decrease

Structure (SMILES): c1cncc([C@@H]2CCCCN2)c1 [anabasine]
- MAO inhibitory effects against MAO-B [6]: exhibited MAO inhibitory effects
- MAO inhibitory effects against MAO-A [7]: exhibited MAO inhibitory effects

Structure (SMILES): C1=CCC(c2cccnc2)NC1 (stereo not shown) [anatabine]
- MAO inhibitory effects against MAO-B [6]: exhibited MAO inhibitory effects
- MAO inhibitory effects against MAO-A [7]: exhibited MAO inhibitory effects

Structure (SMILES): CN1CCCC1c1cccnc1 (stereo not shown) [nicotine]
- effect on dopamine levels [5]: no significant effect
- decrease in dopamine metabolite levels induced by MPTP [5]: prevented the decrease

Structure (SMILES): c1cncc([C@@H]2CCCN2)c1 [nornicotine]
- MAO inhibitory effects against MAO-B [6]: exhibited MAO inhibitory effects
- MAO inhibitory effects against MAO-A [7]: exhibited MAO inhibitory effects
